One molecule from US8852591B2, “Combination of BLyS and/or APRIL inhibition and immunosuppressants for treatment of autoimmune disease” (Zymogenetics, Inc., priority 2007, dated 2014) can be followed below.

SMILES strings stand for the structures.

The subject of one test is total serum IgG. The test is described as follows: 28-day atacicept and MMF co-administration study, total serum IgG by ELISA. It is filed as in vivo, CD-1 mice. As for the experimental part: (§1) Atacicept and MMF (CellCept) co-administration was tested in a 28-day study in CD-1 mice. One hundred fifty animals were distributed among four treatment groups. Group 1 received vehicle control articles used for both atacicept and MMF using the same route and regimen used for each test article. Group 2 received MMF (351 mg/kg) via daily oral gavage. Group 3 received atacicept (20 mg/kg) three times weekly via subcutaneous injection. Group 4 received atacicept (20 mg/kg, 3×/week, SC) and MMF (351 mg/kg, daily, oral), typically administered within 30 minutes of each other. […]
(§2) Animals were sacrificed at baseline (Day-1) and Days 14, 28 (last day of treatment), 42, 56, and 112. […] Body weights were measured and recorded on Day-1 of the study and weekly thereafter, and prior to sacrifice. […] Total serum IgG, IgM, and IgA were measured using a […] necropsies were conducted on sacrificed animals for evaluation of organ weight changes, gross pathology, and histopathology.
Total IgG levels were evaluated using a mouse IgG ELISA quantitation kit (Catalog #E90-131, Bethyl Laboratories, Montgomery, Tex.), combined with the ELISA Starter Accessory Package (Catalog #E101, Bethyl Laboratories, Montgomery, Tex.). […] The color reaction was stopped with addition of 2 M H2SO4, and the resulting absorbance (OD-450) was measured on a Spectramax 190 microplate reader. […]

For the next test, the system named is total IgA serum levels. The test is described as follows: Repeat and extension of atacicept and MMF combination experiment, total IgA by ELISA. Type of test: in vivo, mice. The settings on record: for Numeric mean IgA: dosing until day 91. As for the experimental part: (§3) Using similar procedures to those described in Example 3 and dosing until day 91, the results of Example 3 were replicated and extended in time to days 35, 91, 126, and 182.
(§4) Group 1 received both the vehicle for ATACICEPT and the vehicle for CellCept at the same treatment frequency as the treated groups. Group 2 was treated with only ATACICEPT
(§5) Group 3 received only CellCept. Group 4 received CellCept oral gavage followed by ATACICEPT s.c. injection within a period of approximately 30 minutes. The day of the first treatment was considered day 1 of the study. Throughout the study period clinical observations, hematological and blood chemistry tests, toxicokinetics and additional investigations were carried out.
(§6) Additional satellite groups of animals were used for total immunoglobulin determinations and antibody determination. They were treated and weighed according to the same procedures as the main study.
(§7) Blood samples were collected from 3 animals/sex/group (in progressive numerical order) for the determination of IgG, IgM and IgA serum levels at the following times:
(§8) from animals of groups 9, 10, 11 and 12:
(§9) • on day 34 of the 5-week treatment period • on day 90 of the 13-week treatment period • on day 34 of the 5-week recovery period • on day 90 of the 13-week recovery period
(§10) The blood (at least 0.8-1 mL) was collected at sacrifice from the abdominal aorta of mice after they have been completely anaesthetized with diethyl ether.
(§11) Samples were collected in tubes without any anticoagulant and allowed to clot for about 1 hour at room temperature. The clot were spun down by centrifugation at 3000 rpm at +4° C. for 15 minutes. Blood cells were discarded and the serum banked in 100 μL aliquots (four aliquots for every single analysis) and stored at −80° C. until analysis. Total IgG, IgM and IgA levels were determined by validated ELISA methods.

The next test deals with total IgM serum levels. Put plainly: Repeat and extension of atacicept and MMF combination experiment, total IgM by ELISA. The settings on record: for Numeric mean IgM: dosing until day 91. It is filed as in vivo, mice. As for the experimental part: as §3, §4, §5, §6, §7, §8, §9, §10, §11
In a further test the test system is total serum IgM. The test is described as follows: 28-day atacicept and MMF co-administration study, total serum IgM by ELISA. Type of test: in vivo, CD-1 mice. On the procedure:
as §1, §2
Total IgM levels were evaluated using a mouse IgM ELISA quantitation kit (Catalog #E90-101, Bethyl Laboratories, Montgomery, Tex.), combined with the ELISA Starter Accessory Package (Catalog #E101, Bethyl Laboratories, Montgomery, Tex.). […] The color reaction was stopped with addition of 2 M H2SO4, and the resulting absorbance (OD-450) was measured on a Spectramax 190 microplate reader. […]

In the next test the test system is total IgG serum levels. The test is described as follows: Repeat and extension of atacicept and MMF combination experiment, total IgG by ELISA. To be noted: for Numeric mean IgG: dosing until day 91, atacicept 20 mg/kg s.c. 3/week, MMF 350 mg/kg/day oral. It is filed as in vivo, mice. As for the experimental part: as §3, §4, §5, §6, §7, §8, §9, §10, §11
Another test relates to total serum IgA. Put plainly: 28-day atacicept and MMF co-administration study, total serum IgA by ELISA. It is filed as in vivo, CD-1 mice. As for the experimental part:
as §1, §2
Total IgA levels were evaluated using a mouse IgA ELISA quantitation kit (Catalog #E90-103, Bethyl Laboratories, Montgomery, Tex.), combined with the ELISA Starter Accessory Package (Catalog #E101, Bethyl Laboratories, Montgomery, Tex.). […] The color reaction was stopped with addition of 2 M H2SO4, and the resulting absorbance (OD-450) was measured on a Spectramax 190 microplate reader. […]

Where [1] appears, read: Day 28 (last day of treatment), MMF 351 mg/kg daily oral, atacicept 20 mg/kg 3x/week SC.
Setting [2] is: Day 28, positive = reduction versus vehicle.

Take `COc1c(C)c2c(c(O)c1C/C=C(\C)CCC(=O)OCCN1CCOCC1)C(=O)OC2` [MMF, mycophenolate mofetil]: the “Numeric mean IgG” value in the test on total serum IgG (setting [1]) turned out to be 185 µg/mL; in the test with total IgG serum levels (Sample Day 35) it was 940.13 µg/mL; in the test on total IgG serum levels (Sample Day 91) it was 1192.87 µg/mL. The “Difference from Vehicle, mean IgG (vehicle minus treatment)” value with total serum IgG (setting [2]) is -6 µg/mL; in the test on total IgG serum levels (Sample Day 35), -420.43 µg/mL; with total IgG serum levels (Sample Day 91), -495.86 µg/mL. Also, the “Difference from Vehicle, mean IgA (vehicle minus treatment)” value is -840.19 µg/mL in the test on total IgA serum levels (Sample Day 91), -353.57 µg/mL in the test with total IgA serum levels (Sample Day 126) and -8 µg/mL with total serum IgA (setting [2]). Further, the “Numeric mean IgA” value is 1764.55 µg/mL in the test on total IgA serum levels (Sample Day 91, atacicept 20 mg/kg s.c. 3/week, MMF 350 mg/kg/day oral); 1467.05 µg/mL with total IgA serum levels (Sample Day 126 (recovery period)); 506 µg/mL in the test on total serum IgA (setting [1]). The “Difference from Vehicle, mean IgM (vehicle minus treatment)” value in the test with total IgM serum levels (Sample Day 35) is -35.64 µg/mL; in the test with total IgM serum levels (Sample Day 182), 20.18 µg/mL; in the test with total serum IgM (setting [2]), -79 µg/mL. For the same molecule, the “Numeric mean IgM” value came to 141.34 µg/mL in the test with total IgM serum levels (Sample Day 35, atacicept 20 mg/kg s.c. 3/week, MMF 350 mg/kg/day oral); 53.77 µg/mL in the test on total IgM serum levels (Sample Day 182 (recovery period)); 317 µg/mL with total serum IgM (setting [1]).
